Laboratory results as given in ChEMBL document CHEMBL5046269, “Multifunctional P450 Monooxygenase CftA Diversifies the Clifednamide Pool through Tandem C-H Bond Activations” (2022).
≈ marks a conversion by molar mass, not a printed value.

Legend:
Assay type in all cases: functional
Candida albicans = assay: Antifungal activity against Candida albicans ATCC 48130 assessed as inhibition of fungal growth measured after 18 hrs by CLSI protocol based microbroth dilution method
Staphylococcus aureus = assay: Antibacterial activity against Staphylococcus aureus ATCC 11632 assessed as inhibition of bacterial growth measured after 18 hrs by CLSI protocol based microbroth dilution method
Bacillus subtilis = assay: Antibacterial activity against Bacillus subtilis ATCC 6633 assessed as inhibition of bacterial growth measured after 18 hrs by CLSI protocol based microbroth dilution method
Micrococcus luteus = assay: Antibacterial activity against Micrococcus luteus ATCC 10240 assessed as inhibition of bacterial growth measured after 18 hrs by CLSI protocol based microbroth dilution method

MIC90 (Candida albicans): 22.4 µM (≈ 10.7 µg/mL)
MIC90 (Staphylococcus aureus): 22.4 µM (≈ 10.7 µg/mL)
MIC90 (Bacillus subtilis): 22.4 µM (≈ 10.7 µg/mL)
MIC90 (Micrococcus luteus): 22.4 µM (≈ 10.7 µg/mL)
SMILES: CC[C@H]1[C@@H]2C=C[C@@H]3[C@H]4C/C=C\C(=O)NCCC[C@@H]5NC(=O)C(=C5O)C(=O)/C=C/[C@@H]4C[C@@H]3[C@H]2C[C@H]1C
